Values quoted from earlier work, collected in patent publication US10898467B2, “Veterinary formulations” (BOEHRINGER INGELHEIM ANIMAL HEALTH USA INC., priority 2015, dated 2021).

Settings: beagle dogs, spot-on, 14C radiolabeled drug

For `N#Cc1nn(-c2c(Cl)cc(C(F)(F)F)cc2Cl)c(N)c1[S+]([O-])C(F)(F)F` (stereo not shown) [fipronil, 1-(2,6-Cl2-4-CF3phenyl)-3-CN-4-(SO—CF3)-5-NH2pyrazole], the “Time for which fipronil was persistently detected in the whole skin after treatment” value is listed as “up to 56 days”.
